Several values for one entry are separate records, joined by “and”; a condition that tells them apart may be missing. Identical values can stand only once.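 Test compounds were applied to cells in 96-well plates for 48 hours at 5 doses. Here, GI50 denotes the concentration required for 50% inhibition of growth. The concentration for full growth arrest is given as TGI.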

The first assay has as its system HCT-15 colon. Kind of assay: inhibition of tumour cell growth, NCI panel, 48 h.
Take `COc1ccc(-c2nn(-c3cccc(Cl)c3)cc2C2CC(c3ccccc3)=NN2C(C)=O)cc1` (stereo unspecified): the GI50 is more than 100 µM and the TGI was more than 100 µM.
With `CCn1c(-c2nonc2N)nc2c(C#CCN)ncc(OCCCN)c21`, the GI50 was more than 25 µM and the TGI is more than 25 µM.
In the case of `CN1CCN(Cc2ccc(C(=O)Nc3cncc(C#Cc4cnc(N)c5ccccc45)c3)cc2C(F)(F)F)CC1`, the GI50 was 1.94 µM and the TGI is 4.6 µM.
Regarding `CC(=O)OCC1OC(O[C@@H]2C[C@H]3C(C)(C)[C@H](OC(C)=O)CC[C@]3(C)[C@H]3CCC4=C([C@@H](C)C[C@@H](O)[C@H](O)C(C)(C)O)CC[C@@]4(C)[C@@]32C)C(O)C(O)C1O` (stereo partly specified), the GI50 was 17.1 µM and the TGI is 30.8 µM.
For `N#CC(=C1SCS1)[N+](=O)[O-]`, in that order: 0.853 µM and 9.56 µM.
For `CC(C)(C)OC(=O)n1cc(CNC(=S)Nc2ccccc2)c2ccccc21`, in that order: 10.9 µM and 22.9 µM.
For `O=C(NNc1nc2c(F)cccc2n2cccc12)c1cnccn1`, the GI50 is 0.178 µM and the TGI is more than 48.2 µM.
Turning to `O=C(Nc1cccc(-n2ccc3c(NC(=O)c4ccccc4)nccc32)c1)c1cccc(C(F)(F)F)c1`, the GI50 was 0.0357 µM.
Take `O=C(c1ccc2ccccc2c1)c1c(C(F)(F)F)n([O-])c2cc(Cl)c(Cl)cc2[n+]1=O`: the GI50 is 1.56 µM and the TGI stood at 2.97 µM.
In the case of `C=C1C(=O)O[C@H]2[C@H]1CC/C(CNC(=O)c1c[nH]c3ccc(F)cc13)=C\CC[C@@]1(C)O[C@@H]21`, the GI50 was 0.732 µM and the TGI was 2.21 µM.
On to `CCc1c2c(nc3cc4c(cc13)OCO4)-c1cc3c(c(=O)n1C2)COC(=O)[C@]3(O)CC`, for which the GI50 is 0.182 µM and 0.137 µM; the TGI was more than 100 µM.
On to `CCN1CCN(c2nc(NCCCNc3ccnc4cc(Cl)ccc34)c3ccccc3n2)CC1`, for which the GI50 is 2.6 µM and the TGI stood at 10.9 µM.
On the same counts, the results for `CCC(C)C1NC(=O)c2nc(oc2-c2ccccc2)-c2csc(n2)-c2csc(n2)-c2nc(oc2C)-c2coc(n2)CNC(=O)C(C(C)CC)NC1=O` (stereo unspecified) are 0.0361 µM and 0.18 µM.
For `CCCCCCCCCCCCCC(=S)NCCCC[C@H](NC(=O)OCc1ccccc1)C(=O)Nc1ccccc1`, in that order: 3.52 µM and more than 100 µM.
For `Nc1n[nH]c2ccc([C@@H]3Nc4ccc5[nH]ncc5c4[C@H]4[C@H]5CCC(C5)[C@H]43)cc12`, in that order: 0.407 µM and more than 100 µM.

Another assay relates to RXF 393 renal. Nature of the assay: inhibition of tumour cell growth, NCI panel, 48 h.
On to `COc1ccc(-c2nn(-c3cccc(Cl)c3)cc2C2CC(c3ccccc3)=NN2C(C)=O)cc1` (stereo unspecified), for which the GI50 is 6.49 µM and the TGI was 30.8 µM.
With `CCn1c(-c2nonc2N)nc2c(C#CCN)ncc(OCCCN)c21`, the GI50 is more than 25 µM and the TGI is more than 25 µM.
For the compound `CN1CCN(Cc2ccc(C(=O)Nc3cncc(C#Cc4cnc(N)c5ccccc45)c3)cc2C(F)(F)F)CC1`, the GI50 was 1.55 µM and the TGI was 3.01 µM.
For `CC(=O)OCC1OC(O[C@@H]2C[C@H]3C(C)(C)[C@H](OC(C)=O)CC[C@]3(C)[C@H]3CCC4=C([C@@H](C)C[C@@H](O)[C@H](O)C(C)(C)O)CC[C@@]4(C)[C@@]32C)C(O)C(O)C1O` (stereo partly specified), in that order: 14.8 µM and 28 µM.
With `N#CC(=C1SCS1)[N+](=O)[O-]`, the GI50 was 1.63 µM and the TGI came out at 3.83 µM.
On to `CC(C)(C)OC(=O)n1cc(CNC(=S)Nc2ccccc2)c2ccccc21`, for which the GI50 is 19.3 µM and the TGI came out at 43.2 µM.
On the same counts, the results for `O=C(NNc1nc2c(F)cccc2n2cccc12)c1cnccn1` are 0.986 µM and 7.29 µM.
On the same counts, the results for `O=C(Nc1cccc(-n2ccc3c(NC(=O)c4ccccc4)nccc32)c1)c1cccc(C(F)(F)F)c1` are 0.0187 µM and 0.0442 µM.
For `O=C(c1ccc2ccccc2c1)c1c(C(F)(F)F)n([O-])c2cc(Cl)c(Cl)cc2[n+]1=O`, in that order: 1.6 µM and 3.04 µM.
Turning to `C=C1C(=O)O[C@H]2[C@H]1CC/C(CNC(=O)c1c[nH]c3ccc(F)cc13)=C\CC[C@@]1(C)O[C@@H]21`, the GI50 was 0.522 µM and the TGI was determined as 1.75 µM.
Consider `CCc1c2c(nc3cc4c(cc13)OCO4)-c1cc3c(c(=O)n1C2)COC(=O)[C@]3(O)CC`, for which the TGI was 0.117 µM and 0.478 µM.
Regarding `CCN1CCN(c2nc(NCCCNc3ccnc4cc(Cl)ccc34)c3ccccc3n2)CC1`, the GI50 was 1.51 µM and the TGI was 3.29 µM.
For `CCC(C)C1NC(=O)c2nc(oc2-c2ccccc2)-c2csc(n2)-c2csc(n2)-c2nc(oc2C)-c2coc(n2)CNC(=O)C(C(C)CC)NC1=O` (stereo unspecified), in that order: 0.0334 µM and 0.166 µM.
As to `CCCCCCCCCCCCCC(=S)NCCCC[C@H](NC(=O)OCc1ccccc1)C(=O)Nc1ccccc1`, the GI50 was 5.91 µM and the TGI was more than 100 µM.

The next assay has as its system COLO 205 colon. Kind of assay: inhibition of tumour cell growth, NCI panel, 48 h.
With `COc1ccc(-c2nn(-c3cccc(Cl)c3)cc2C2CC(c3ccccc3)=NN2C(C)=O)cc1` (stereo unspecified), the GI50 was more than 100 µM and the TGI was more than 100 µM.
Take `CCn1c(-c2nonc2N)nc2c(C#CCN)ncc(OCCCN)c21`: the GI50 was more than 25 µM and the TGI is more than 25 µM.
For `CN1CCN(Cc2ccc(C(=O)Nc3cncc(C#Cc4cnc(N)c5ccccc45)c3)cc2C(F)(F)F)CC1`, the GI50 was 3.69 µM and the TGI amounted to 13.3 µM.
For the compound `CC(=O)OCC1OC(O[C@@H]2C[C@H]3C(C)(C)[C@H](OC(C)=O)CC[C@]3(C)[C@H]3CCC4=C([C@@H](C)C[C@@H](O)[C@H](O)C(C)(C)O)CC[C@@]4(C)[C@@]32C)C(O)C(O)C1O` (stereo partly specified), the GI50 is 16 µM and the TGI stood at 30.2 µM.
Regarding `N#CC(=C1SCS1)[N+](=O)[O-]`, the GI50 was 1.41 µM and the TGI amounted to 3.92 µM.
For the compound `CC(C)(C)OC(=O)n1cc(CNC(=S)Nc2ccccc2)c2ccccc21`, the GI50 was 11.3 µM and the TGI was found to be 23.4 µM.
`O=C(NNc1nc2c(F)cccc2n2cccc12)c1cnccn1`: the GI50 was 0.426 µM and the TGI is more than 33.4 µM.
As for `C=C1C(=O)O[C@H]2[C@H]1CC/C(CNC(=O)c1c[nH]c3ccc(F)cc13)=C\CC[C@@]1(C)O[C@@H]21`, the GI50 was 0.583 µM and the TGI was 2.14 µM.
Take `CCc1c2c(nc3cc4c(cc13)OCO4)-c1cc3c(c(=O)n1C2)COC(=O)[C@]3(O)CC`: the GI50 was 1.17 µM and the TGI is more than 100 µM.
As to `CCN1CCN(c2nc(NCCCNc3ccnc4cc(Cl)ccc34)c3ccccc3n2)CC1`, the GI50 was 1.66 µM and the TGI stood at 3.46 µM.
Consider `CCCCCCCCCCCCCC(=S)NCCCC[C@H](NC(=O)OCc1ccccc1)C(=O)Nc1ccccc1`, for which the GI50 is 3.87 µM and the TGI stood at 22.5 µM.
For `Nc1n[nH]c2ccc([C@@H]3Nc4ccc5[nH]ncc5c4[C@H]4[C@H]5CCC(C5)[C@H]43)cc12`, in that order: 0.375 µM and 5.68 µM.

The test system of the next assay is SK-MEL-2 melanoma. Kind of assay: inhibition of tumour cell growth, NCI panel, 48 h.
`COc1ccc(-c2nn(-c3cccc(Cl)c3)cc2C2CC(c3ccccc3)=NN2C(C)=O)cc1` (stereo unspecified): the GI50 was 4.97 µM and the TGI worked out at 22.6 µM.
On the same counts, the results for `CCn1c(-c2nonc2N)nc2c(C#CCN)ncc(OCCCN)c21` are more than 25 µM and more than 25 µM.
For `CN1CCN(Cc2ccc(C(=O)Nc3cncc(C#Cc4cnc(N)c5ccccc45)c3)cc2C(F)(F)F)CC1`, in that order: 2.29 µM and 5.2 µM.
On the same counts, the results for `CC(=O)OCC1OC(O[C@@H]2C[C@H]3C(C)(C)[C@H](OC(C)=O)CC[C@]3(C)[C@H]3CCC4=C([C@@H](C)C[C@@H](O)[C@H](O)C(C)(C)O)CC[C@@]4(C)[C@@]32C)C(O)C(O)C1O` (stereo partly specified) are 16.3 µM and 30.3 µM.
Take `N#CC(=C1SCS1)[N+](=O)[O-]`: the GI50 was 6.7 µM and the TGI turned out to be 20.7 µM.
Take `CC(C)(C)OC(=O)n1cc(CNC(=S)Nc2ccccc2)c2ccccc21`: the GI50 was 36.3 µM and the TGI is more than 100 µM.
For the compound `O=C(NNc1nc2c(F)cccc2n2cccc12)c1cnccn1`, the GI50 was 1.4 µM and the TGI amounted to 37 µM.
As to `O=C(Nc1cccc(-n2ccc3c(NC(=O)c4ccccc4)nccc32)c1)c1cccc(C(F)(F)F)c1`, the GI50 is 0.0547 µM and the TGI is 14.3 µM.
Consider `O=C(c1ccc2ccccc2c1)c1c(C(F)(F)F)n([O-])c2cc(Cl)c(Cl)cc2[n+]1=O`, for which the GI50 was 1.64 µM and the TGI turned out to be 2.99 µM.
Consider `C=C1C(=O)O[C@H]2[C@H]1CC/C(CNC(=O)c1c[nH]c3ccc(F)cc13)=C\CC[C@@]1(C)O[C@@H]21`, for which the GI50 was 1.42 µM and the TGI came out at 3.09 µM.
For `CCN1CCN(c2nc(NCCCNc3ccnc4cc(Cl)ccc34)c3ccccc3n2)CC1`, the GI50 is 2.14 µM and the TGI was found to be 4.88 µM.
On the same counts, the results for `CCCCCCCCCCCCCC(=S)NCCCC[C@H](NC(=O)OCc1ccccc1)C(=O)Nc1ccccc1` are 3.48 µM and 26.9 µM.
For `Nc1n[nH]c2ccc([C@@H]3Nc4ccc5[nH]ncc5c4[C@H]4[C@H]5CCC(C5)[C@H]43)cc12`, in that order: 1.24 µM and 40.8 µM.

The next assay deals with OVCAR-5 ovarian. Nature of the assay: inhibition of tumour cell growth, NCI panel, 48 h.
As to `COc1ccc(-c2nn(-c3cccc(Cl)c3)cc2C2CC(c3ccccc3)=NN2C(C)=O)cc1` (stereo unspecified), the GI50 is more than 100 µM and the TGI is more than 100 µM.
Consider `CCn1c(-c2nonc2N)nc2c(C#CCN)ncc(OCCCN)c21`, for which the GI50 is more than 25 µM and the TGI was more than 25 µM.
In the case of `CN1CCN(Cc2ccc(C(=O)Nc3cncc(C#Cc4cnc(N)c5ccccc45)c3)cc2C(F)(F)F)CC1`, the GI50 is 2.67 µM and the TGI is 6.91 µM.
Consider `CC(=O)OCC1OC(O[C@@H]2C[C@H]3C(C)(C)[C@H](OC(C)=O)CC[C@]3(C)[C@H]3CCC4=C([C@@H](C)C[C@@H](O)[C@H](O)C(C)(C)O)CC[C@@]4(C)[C@@]32C)C(O)C(O)C1O` (stereo partly specified), for which the GI50 is 17.7 µM and the TGI came out at 31.6 µM.
On the same counts, the results for `N#CC(=C1SCS1)[N+](=O)[O-]` are 4.12 µM and 19.9 µM.
Consider `CC(C)(C)OC(=O)n1cc(CNC(=S)Nc2ccccc2)c2ccccc21`, for which the GI50 was 16.3 µM and the TGI was 37.6 µM.
Consider `O=C(NNc1nc2c(F)cccc2n2cccc12)c1cnccn1`, for which the GI50 was 1.51 µM and the TGI is more than 61.1 µM.
For `O=C(Nc1cccc(-n2ccc3c(NC(=O)c4ccccc4)nccc32)c1)c1cccc(C(F)(F)F)c1`, in that order: 0.239 µM and more than 100 µM.
For `O=C(c1ccc2ccccc2c1)c1c(C(F)(F)F)n([O-])c2cc(Cl)c(Cl)cc2[n+]1=O`, in that order: 1.65 µM and 3.01 µM.
On the same counts, the results for `C=C1C(=O)O[C@H]2[C@H]1CC/C(CNC(=O)c1c[nH]c3ccc(F)cc13)=C\CC[C@@]1(C)O[C@@H]21` are 1.9 µM and 4.82 µM.
`CCc1c2c(nc3cc4c(cc13)OCO4)-c1cc3c(c(=O)n1C2)COC(=O)[C@]3(O)CC`: the GI50 is 0.885 µM and 0.313 µM; the TGI worked out at 2.27 µM.
On to `CCN1CCN(c2nc(NCCCNc3ccnc4cc(Cl)ccc34)c3ccccc3n2)CC1`, for which the GI50 was 3 µM and the TGI was 11 µM.
As for `CCC(C)C1NC(=O)c2nc(oc2-c2ccccc2)-c2csc(n2)-c2csc(n2)-c2nc(oc2C)-c2coc(n2)CNC(=O)C(C(C)CC)NC1=O` (stereo unspecified), the GI50 was 0.0515 µM and the TGI amounted to 0.189 µM.
Turning to `CCCCCCCCCCCCCC(=S)NCCCC[C@H](NC(=O)OCc1ccccc1)C(=O)Nc1ccccc1`, the GI50 was 10.3 µM and the TGI is more than 100 µM.
As for `Nc1n[nH]c2ccc([C@@H]3Nc4ccc5[nH]ncc5c4[C@H]4[C@H]5CCC(C5)[C@H]43)cc12`, the GI50 was 0.572 µM and the TGI was found to be 49.6 µM.

For the origin of these results see PubChem BioAssay (NCI).
